Usually Ki stands for a measure of affinity in units of concentration, obtained from inhibition or displacement.

Molecules are shown by their SMILES.

The record followed here is ChEMBL document CHEMBL1152880, “Synthesis and SAR studies of trisubstituted purinones as potent and selective adenosine A2A receptor antagonists” (Bioorg Med Chem Lett, 2009).

For one assay, the species on record is Homo sapiens. Kind of assay: Selectivity ratio of Ki for human adenosine A1 receptor to Ki for human recombinant adenosine A2A receptor.
Another assay deals with T1, Adenosine receptor A1 (Homo sapiens, UniProt P30542).
T1 sequence (P30542 whole entry): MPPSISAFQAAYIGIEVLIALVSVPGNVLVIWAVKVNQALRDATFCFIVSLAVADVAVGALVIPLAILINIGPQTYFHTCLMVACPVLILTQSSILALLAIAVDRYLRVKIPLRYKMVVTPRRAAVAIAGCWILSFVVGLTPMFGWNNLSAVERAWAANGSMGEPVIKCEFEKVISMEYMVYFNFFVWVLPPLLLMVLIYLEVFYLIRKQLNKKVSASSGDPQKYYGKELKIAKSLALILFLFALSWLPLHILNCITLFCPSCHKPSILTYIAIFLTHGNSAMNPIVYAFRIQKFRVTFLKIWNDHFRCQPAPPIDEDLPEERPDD
The assay can be described thus: Displacement of [3H]DPCPX from human recombinant adenosine A1 receptor expressed in CHOK1 cells. Type of assay: cell-based, CHO-K1. A general note: Loss of bound radioactivity is the signal in a displacement assay; it reports binding, not function.

In a further assay the target is Adenosine receptor A2a (Homo sapiens, UniProt P29274). Kind of assay: Displacement of [3H]SCH-58261 from human recombinant adenosine A2A receptor expressed in HEK293 cells. It counts as cell-based.
Sequence of Adenosine receptor A2a (P29274 whole entry): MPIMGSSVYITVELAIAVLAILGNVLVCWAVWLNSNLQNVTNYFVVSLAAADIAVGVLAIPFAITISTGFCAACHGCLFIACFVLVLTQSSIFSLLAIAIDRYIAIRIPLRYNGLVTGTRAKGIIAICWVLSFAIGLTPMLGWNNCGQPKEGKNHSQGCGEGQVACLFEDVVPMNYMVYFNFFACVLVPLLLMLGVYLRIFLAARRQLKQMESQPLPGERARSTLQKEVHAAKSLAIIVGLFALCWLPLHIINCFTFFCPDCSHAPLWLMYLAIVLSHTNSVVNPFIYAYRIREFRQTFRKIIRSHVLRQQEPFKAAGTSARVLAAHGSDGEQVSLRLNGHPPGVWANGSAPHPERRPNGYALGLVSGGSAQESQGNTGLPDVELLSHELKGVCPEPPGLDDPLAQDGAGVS

`COc1cccc(-n2c(=O)n(Cc3c(F)cccc3F)c3cnc(NCc4ccncc4)nc32)c1`: in the assay listed under Homo sapiens, the Ratio Ki amounted to 24. Moreover, the results for the inhibition constant (Ki) at Adenosine receptor A1 and at Adenosine receptor A2a were 1190 nM and 50 nM, respectively.
In the same order, the values of `COc1ccccc1Cn1c(=O)n(-c2cccc(F)c2)c2nc(NC3CC3)ncc21` are 7, 599 nM and 89 nM.
On the same counts, the results for `COc1cccc(-n2c(=O)n(Cc3c(F)cccc3F)c3cnc(NCc4cccnc4)nc32)c1` are 20, 1300 nM and 66 nM.
In the same order, the values of `COc1ccccc1Cn1c(=O)n(-c2cccc(OC(F)(F)F)c2)c2nc(NC3CC3)ncc21` are 25, 5140 nM and 206 nM.
For the compound `COc1cccc(-n2c(=O)n(Cc3ccccc3F)c3cnc(NC4CC4)nc32)c1`, in the assay listed under Homo sapiens, the Ratio Ki was 6. Also, the figures for the inhibitory constant (Ki) at Adenosine receptor A1 and at Adenosine receptor A2a were 201 nM and 33 nM, respectively.
Regarding `COc1cccc(-n2c(=O)n(Cc3c(F)cccc3F)c3cnc(NC4CCCC4)nc32)c1`, the Ratio Ki in the assay filed under Homo sapiens stood at 5. Further, the inhibitory constant (Ki) at Adenosine receptor A1 was 1060 nM; on Adenosine receptor A2a it was 213 nM.
In the same order, the values of `COc1cccc(-n2c(=O)n(Cc3c(F)cccc3F)c3cnc(NCCN4CCOCC4)nc32)c1` are 33, 8600 nM and 259 nM.
On the same counts, the results for `COc1cccc(-n2c(=O)n(-c3ccccc3OC)c3cnc(NC4CC4)nc32)c1` are 0.2, 1260 nM and 5120 nM.
With `COc1cccc(-n2c(=O)n(C(C)c3ccccc3)c3cnc(NC4CC4)nc32)c1` (centres undefined), the Ki at Adenosine receptor A2a is 359 nM.
For `COc1cccc(-n2c(=O)n(Cc3c(F)cccc3F)c3cnc(NCc4ccccn4)nc32)c1`, the Ratio Ki in the assay filed under Homo sapiens stood at 100. Moreover, the inhibition constant (Ki) on Adenosine receptor A1 amounted to 1210 nM; on Adenosine receptor A2a, 12 nM.
In the case of `COc1cccc(-n2c(=O)n(C)c3cnc(NC4CC4)nc32)c1`, on Adenosine receptor A2a, the inhibitory constant (Ki) was 2640 nM.
Still for that read-out and setting: for `COc1ccccc1Cn1c(=O)n(-c2ccccc2OC)c2nc(NC3CC3)ncc21` the value was 1560 nM.
In the case of `COCCNc1ncc2c(n1)n(-c1cccc(OC)c1)c(=O)n2Cc1c(F)cccc1F`, the Ratio Ki in the assay listed under Homo sapiens came to 14. Besides, the Ki on Adenosine receptor A1 was found to be 1470 nM; at Adenosine receptor A2a it was 106 nM.
In the same order, the values of `COc1cccc(-n2c(=O)n(Cc3c(F)cccc3F)c3cnc(Nc4cccnc4)nc32)c1` are 17, 1830 nM and 111 nM.
Turning to `COc1ccccc1Cn1c(=O)n(-c2cccc(C)c2)c2nc(NC3CC3)ncc21`, in the assay listed under Homo sapiens, the Ratio Ki came out at 6. For the same compound, the inhibitory constant (Ki) at Adenosine receptor A1 is 1850 nM; on Adenosine receptor A2a, 316 nM.
On the same counts, the results for `COc1cccc(-n2c(=O)n(Cc3c(F)cccc3F)c3cnc(NC4CC4)nc32)c1` are 59, 236 nM and 4 nM.
On to `COc1cccc(-n2c(=O)n(Cc3c(F)cccc3F)c3cnc(NCc4ccccc4)nc32)c1`, for which, in the assay listed under Homo sapiens, the Ratio Ki came to 42. Further, the inhibition constant (Ki) at Adenosine receptor A1 is 2970 nM; on Adenosine receptor A2a, 72 nM.
In the same order, the values of `COc1cccc(-n2c(=O)n(Cc3c(F)cccc3F)c3cnc(NC(C)C)nc32)c1` are 10, 616 nM and 60 nM.
Take `COc1ccccc1Cn1c(=O)n(-c2ccccc2)c2nc(NC3CC3)ncc21`: the Ratio Ki in the assay filed under Homo sapiens came out at 1.1. For the same compound, the inhibition constant (Ki) was 447 nM at Adenosine receptor A1 and 409 nM on Adenosine receptor A2a.
Take `COc1cccc(-n2c(=O)n(Cc3c(F)cccc3F)c3cnc(NCCN(C)C)nc32)c1`: the Ratio Ki in the assay listed under Homo sapiens is 38. Besides, the Ki came out at 10000 nM at Adenosine receptor A1 and 261 nM on Adenosine receptor A2a.
In the same order, the values of `COc1cccc(-n2c(=O)n(Cc3ccccc3OC)c3cnc(NC4CC4)nc32)c1` are 17, 402 nM and 24 nM.
In the same order, the values of `COc1cccc(-n2c(=O)n(Cc3ccccc3)c3cnc(NC4CC4)nc32)c1` are 10, 564 nM and 54 nM.
In the case of `COc1ccccc1Cn1c(=O)n(-c2cccc(C#N)c2)c2nc(NC3CC3)ncc21`, the Ratio Ki in the assay listed under Homo sapiens amounted to 1.3. The Ki was determined as 3240 nM at Adenosine receptor A1 and 2590 nM at Adenosine receptor A2a.
On the same counts, the results for `COc1cccc(-n2c(=O)n(Cc3c(F)cccc3F)c3cnc(NCCc4cccs4)nc32)c1` are 220, 1970 nM and 9 nM.
In the same order, the values of `COc1cccc(-n2c(=O)n(Cc3c(F)cccc3F)c3cnc(NCCc4ccccn4)nc32)c1` are 23, 1800 nM and 78 nM.
In the case of `COc1cccc(Cn2c(=O)n(Cc3ccccc3OC)c3cnc(NC4CC4)nc32)c1`, the inhibition constant (Ki) was greater than 10000 nM at Adenosine receptor A1 and 9210 nM on Adenosine receptor A2a.
Consider `COc1cccc(-n2c(=O)n(Cc3ccccc3Cl)c3cnc(NC4CC4)nc32)c1`, for which the Ratio Ki in the assay listed under Homo sapiens was 33. Besides, the Ki worked out at 2850 nM at Adenosine receptor A1 and 86 nM on Adenosine receptor A2a.
In the same order, the values of `COc1cccc(-n2c(=O)n(Cc3c(F)cccc3OC)c3cnc(NC4CC4)nc32)c1` are 55, 330 nM and 6 nM.
In the same order, the values of `CCNc1ncc2c(n1)n(-c1cccc(OC)c1)c(=O)n2Cc1c(F)cccc1F` are 34, 1050 nM and 31 nM.
In the same order, the values of `COc1cccc(-n2c(=O)n(Cc3c(F)cccc3F)c3cnc(NCC4CC4)nc32)c1` are 2, 1070 nM and 499 nM.
Consider `COc1cc(OC)cc(-n2c(=O)n(Cc3ccccc3OC)c3cnc(NC4CC4)nc32)c1`, for which the Ratio Ki in the assay filed under Homo sapiens is 61. In addition, the inhibition constant Ki turned out to be 4640 nM at Adenosine receptor A1 and 76 nM on Adenosine receptor A2a.
In the same order, the values of `CNc1ncc2c(n1)n(-c1cccc(OC)c1)c(=O)n2Cc1c(F)cccc1F` are 49, 1110 nM and 23 nM.
